Source: article PMC10815823 (Genes, 2024)
Read-outs that look alike come from different tables or passages of the source.

Assays:
[1] = single-oral-dose pharmacokinetic study, plasma AVA and metabolite concentrations in pediatric hypercholesterolemia stratified by SLCO1B1 c.521T>C genotype; assay type: in vivo, human; settings: for AUC(0-t) / Cmax / Tmax: human, plasma, 10 mg; for Tmax: median (range)
Protocol: A screening physical examination (including sexual maturity rating via Tanner Staging) was performed prior to ingesting AVA. […] Samples were immediately centrifuged at 4 °C for 10 min at 600 g. Plasma was removed and stored at -80 °C until the analysis. […] All analytical reference compounds were purchased from Toronto Research Chemicals at their highest purity. Plasma proteins were precipitated with acetonitrile and centrifuged, and the filtrates were transferred to a new set of clean, labeled microcentrifuge tubes. An aliquot of the extracts was then transferred to a 96-well plate and analyzed by ultra-performance liquid chromatography tandem mass spectrometry (UPLC-MS/MS) with positive-ion electrospray ionization using multiple-reaction monitoring (MRM). […] Gradient elution was optimized with an acetonitrile-water-MeOH gradient: mobile phase A: water: MeOH: acetic acid (v/v/v), 90:10:0.1; mobile phase B: acetonitrile: methanol: acetic acid (v/v/v), 60:40:0.1. […] All the data acquisition and analysis were carried out by Masslynx 4.2 software. […] The individual peak plasma concentration (Cmax) and time to maximal concentration (Tmax) were obtained by direct examination of the plasma AVA concentration versus hour profile. The area under the plasma concentration versus time curve during the sampling period (AUC0-n) was calculated using the mixed log-linear method, where n refers to the final sampling time with quantifiable plasma AVA or AVA metabolite concentrations. […] Pharmacokinetic parameters were examined in JMP® version 14 (SAS, Cary, NC, USA). Pharmacokinetic parameters reflective of plasma AVA concentrations (Cmax, AUC0-n) and the SLCO1B1 genotype ([…] vs. T/C and C/C) were dependent variables and independent variables, respectively. The Kruskal-Wallis test was leveraged to compare the pharmacokinetic parameters related to genotype groups and demographics. Linear regression to examine the association between the AVA AUCn and […] genotype groups, adjusting for BMI z-score, sex and Tanner score, was performed. […] A single Tanner score was computed by averaging each participant's Tanner breast/testicular and Tanner public hair stage scores. AVA AUC0-24 was first modeled as a function of BMI z-score, sex and Tanner score to estimate the proportion of variability that could be accounted for by these participant characteristics. Then, the count of […] alleles was added to the model to estimate the additional variability accounted for. […] Therefore, the Cmax and AUC were normalized to a dose for each individual participant by dividing the exposure parameter value by the actual mg/kg dose received, then multiplying by the mean mg/kg dose for the entire cohort (e.g., participant AUC (ng·hr/mL)/participant dose (mg/kg) × cohort mean dose (mg/kg)).

[2] = pediatric cohorts; cited from earlier work
[3] = female, oral, Table S3, Gender: Female, mean (± SD), read-out: AUC0-24
[4] = oral, Table S1, entire cohort, median (IQR)
[5] = oral, Table S1, entire cohort, median (IQR), read-out: AUC 0-24
[6] = oral, Table S3, Ethnicity: African-American, mean (± SD), read-out: AUC0-24
[7] = oral, Table S3, Ethnicity: White, Hispanic, mean (± SD), read-out: AUC0-24
[8] = oral, Table S3, Ethnicity: White, non-Hispanic, mean (± SD), read-out: AUC0-24
[9] = oral, Table S3, Tanner Breast/Testicular Stage 2, mean (± SD), read-out: AUC0-24
[10] = oral, Table S3, Tanner Breast/Testicular Stage 3, read-out: AUC0-24
[11] = oral, Table S3, Tanner Breast/Testicular Stage 4, mean (± SD), read-out: AUC0-24
[12] = oral, Table S3, Tanner Breast/Testicular Stage 5, mean (± SD), read-out: AUC0-24
[13] = oral, Table S3, Tanner Pubic Stage 1, read-out: AUC0-24
[14] = oral, Table S3, Tanner Pubic Stage 2, mean (± SD), read-out: AUC0-24
[15] = oral, Table S3, Tanner Pubic Stage 3, read-out: AUC0-24
[16] = oral, Table S3, Tanner Pubic Stage 4, mean (± SD), read-out: AUC0-24
[17] = oral, Table S3, Tanner Pubic Stage 5, mean (± SD), read-out: AUC0-24
[18] = po, SLCO1B1 c.521C/C (n = 2), single oral 10 mg dose, mean (±SD)
[19] = po, SLCO1B1 c.521C/C (n = 2), single oral 10 mg dose
[20] = po, SLCO1B1 c.521C/C (n = 2), single oral 10 mg dose, mean (±SD), read-out: AUC0–24
[21] = po, SLCO1B1 c.521T/C (n = 13), single oral 10 mg dose, mean (±SD)
[22] = po, SLCO1B1 c.521T/C (n = 13), single oral 10 mg dose
[23] = po, SLCO1B1 c.521T/C (n = 13), single oral 10 mg dose, mean (±SD), read-out: AUC0–24
[24] = po, SLCO1B1 c.521T/T (n = 13), single oral 10 mg dose, mean (±SD)
[25] = po, SLCO1B1 c.521T/T (n = 13), single oral 10 mg dose
[26] = po, SLCO1B1 c.521T/T (n = 13), single oral 10 mg dose, mean (±SD), read-out: AUC0–24
[27] = po, entire cohort (n = 28), median (IQR), single oral 10 mg dose
[28] = po, entire cohort (n = 28), median (IQR), single oral 10 mg dose, read-out: AUC0–24
[29] = male, oral, Table S3, Gender: Male, mean (± SD), read-out: AUC0-24

Row | SMILES | AUC(0-t) [1, 3] [ng·h/mL] | Cmax [1, 4] [ng/mL] | AUC(0-t) [1, 5] [ng·h/mL] | AUC(0-t) [1, 6] [ng·h/mL] | AUC(0-t) [1, 7] [ng·h/mL] | AUC(0-t) [1, 8] [ng·h/mL] | AUC(0-t) [1, 9] [ng·h/mL] | AUC(0-t) [1, 10] [ng·h/mL] | AUC(0-t) [1, 11] [ng·h/mL] | AUC(0-t) [1, 12] [ng·h/mL] | AUC(0-t) [1, 13] [ng·h/mL] | AUC(0-t) [1, 14] [ng·h/mL] | AUC(0-t) [1, 15] [ng·h/mL] | AUC(0-t) [1, 16] [ng·h/mL] | AUC(0-t) [1, 17] [ng·h/mL] | Cmax [1, 18] [ng/mL] | Tmax [1, 19] [h] | AUC(0-t) [1, 20] [ng·h/mL] | Cmax [1, 21] [ng/mL] | Tmax [1, 22] [h] | also measured
1 | CC(C)c1c(C(=O)Nc2ccccc2O)c(-c2ccccc2)c(-c2ccc(F)cc2)n1CCC1CC(O)CC(=O)O1 (stereo not shown) [2-Hydroxy Atorvastatin Lactone, 2-hydroxyatorvastatin lactone] | 18 | 1.1 | 14.5 | 16.7 | 17.2 | 16.4 | 31.9 | 23.4 | 13.4 | 12.9 | 39.2 | 32.7 | 12.7 | 8.5 | 13.7 | 1.9 | 7 | 31 | 1.3 | 5 | effect of SLCO1B1 c.521T>C genotype on exposure ([1]; Kruskal–Wallis across genotype groups): not affected by genotype; AUC(0-t) [1, 23]: 17.4 ng·h/mL; Cmax [1, 24]: 1 ng/mL; Tmax [1, 25]: 7 h; AUC(0-t) [1, 26]: 14 ng·h/mL; Cmax [1, 27]: 1.1 ng/mL; AUC(0-t) [1, 28]: 14.5 ng·h/mL; AUC(0-t) [1, 29]: 15.7 ng·h/mL
2 | CC(C)c1c(C(=O)Nc2ccccc2O)c(-c2ccccc2)c(-c2ccc(F)cc2)n1CC[C@@H](O)C[C@@H](O)CC(=O)O [2-Hydroxy Atorvastatin, 2-hydroxyatorvastatin] | 7.3 | 0.7 | 6.4 | 6.1 | 7.6 | 6.9 | 6 | 6 | 4.7 | 8.1 | 5.1 | 6.7 | 4.1 | 3.6 | 8 | 1.3 | 5 | 10.8 | 0.8 | 3 | AUC(0-t) [1, 23]: 7.5 ng·h/mL; Cmax [1, 24]: 0.7 ng/mL; Tmax [1, 25]: 2 h; AUC(0-t) [1, 26]: 6.2 ng·h/mL; Cmax [1, 27]: 0.7 ng/mL; AUC(0-t) [1, 28]: 6.4 ng·h/mL; AUC(0-t) [1, 29]: 7 ng·h/mL
3 | CC(C)c1c(C(=O)Nc2ccccc2)c(-c2ccccc2)c(-c2ccc(F)cc2)n1CC[C@@H]1C[C@@H](O)CC(=O)O1 [Atorvastatin Lactone, atorvastatin lactone] | 12.1 | 0.9 | 8.7 | 11.4 | 13.2 | 10 | 23.3 | 17.3 | 7.9 | 8.5 | 15.4 | 27.7 | 7.8 | 5 | 8.9 | 1.5 | 6 | 27.8 | 1.1 | 4 | mean Cmax fold higher, c.521C/C relative to c.521T/T ([1]; c.521C/C (n = 2) vs c.521T/T (n = 13)): 2.1 fold; mean Cmax fold higher, c.521T/C relative to c.521T/T ([1]; c.521T/C (n = 13) vs c.521T/T (n = 13)): 1.6 fold; mean AUC0–24 fold higher, c.521T/C relative to c.521T/T ([1]; c.521T/C vs reference genotype): 1.8 fold; AUC(0-t) [1, 23]: 13 ng·h/mL; Cmax [1, 24]: 0.7 ng/mL; Tmax [1, 25]: 2.5 h; AUC(0-t) [1, 26]: 7.2 ng·h/mL; Cmax [1, 27]: 0.9 ng/mL; AUC(0-t) [1, 28]: 8.7 ng·h/mL; AUC(0-t) [1, 29]: 10.7 ng·h/mL
4 | CC(C)c1c(C(=O)Nc2ccccc2)c(-c2ccccc2)c(-c2ccc(F)cc2)n1CC[C@@H](O)C[C@@H](O)CC(=O)O [Atorvastatin, reference compound] |  |  |  |  |  |  |  |  |  |  |  |  |  |  |  |  |  |  |  |  | participants with secondary peaking suggestive of entero-hepatic recirculation ([1]; 12 of 28 participants): 43%; adverse events ([1]; single oral 10 mg dose, 28 participants): No adverse events were reported
5 | CC[C@H](C)C(=O)O[C@H]1C[C@H](O)C=C2C=C[C@H](C)[C@H](CC[C@@H](O)C[C@@H](O)CC(=O)O)[C@H]21 [pravastatin] |  |  |  |  |  |  |  |  |  |  |  |  |  |  |  |  |  |  |  |  | within-c.521T>C-genotype variability in plasma statin concentration [2]: 8- to 17 fold
